Measured values as given in patent US5621102A, “Process for preparing enantiomerically pure xanthine derivatives” (Cell Therapeutics, Inc., priority 1995, dated 1997).

Key:
[1] = tested on: IL-1-α release in LPS activated PEC; assay: IL-1α release from LPS activated PEC, ELISA; type: cell-based; details: Mus musculus, at 24 hours after LPS, read-out: maximum inhibition of IL-1α release
Method: Cells were isolated and treated with or without 250 μM CT1501R one hour prior to activation with 10 μg/ml LPS. At various times later, supernatants were harvested and assayed for IL-1-α by ELISA (+/-SD)
(§1) Murine peritoneal exudate cell macrophages (PEC) were isolated by perfusion of mouse peritoneum and plated into 96-well trays at 5×10^5 cells per well. Cells were stimulated with 5 μg/ml Salmonella abortus equi-derived endotoxin CLPS; Sigma Chemical Co., L-1887) or 50 ng/ml IL-1α (Genzyme; Cambridge, Mass.) with or without the addition of CT1501R added to the cultures one hour prior to addition of the stimulus. At various times thereafter, supernatants were removed and levels of either TNF-α or IL-1α were assayed using commercial 96-well microtiter immunoassay kits (Genzyme; TNF; Endogen, Boston, Mass.; IL-1α) according to manufacturer's specifications. For the adhesion studies, early passage human umbilical vein endothelial cells (HUVEC) were obtained from commercial suppliers (Clonetics, San Diego, Calif. or Cell Systems, Seattle, Wash.) and cultured in defined, Hepes buffered, serum free medium (Cell Systems, cat 301-180) supplemented with acidic FGF (Cell Systems cat 401-111). […] After addition of […] Hanks Balanced Salt Solution (HBSS), the microtiter plate was then analyzed on a Millipore Cytofiuor fluorescent plate reader (excitation 488 nm; emission 525 nm). […]

smooth muscle cells = assay: smooth muscle proliferation stimulated by PDGF and IL-1; type: cell-based
Description: CT1501R and PTX were separately added to the cells two hours prior to activation with PDGF and IL-1.

[2] = tested on: murine B-cell proliferation; assay: B-cell proliferation assay (anti-mu antibody and/or IL-4); type: cell-based; details: stimulated by anti-mu antibody crosslinked and/or IL-4
Method: A B-cell proliferation assay determines the effect of the inventive compounds on inhibiting proliferation of stimulated B-cells, stimulated by an anti-mu antibody ([…]), IL-4 or PMA (2.5 nM). Ramos B-cell tumor cells or murine splenocytes can be incubated with a stimulating agent, an inventive compound and tritiated thymidine to measure inhibition of cell proliferation caused by the stimulating agent.

[3] = tested on: TNF-α release from IL-1α activated PEC; assay: TNF-α release from IL-1α activated PEC, ELISA; type: cell-based; details: Mus musculus, 50 ng/ml IL-1α, at the tested time points (24, 48, 72 hrs), read-out: inhibition of induced levels of TNF-α
Method: Cells were isolated and treated with or without CT1501R (250 μM) 1 hour prior to IL-1-α activation. The supernatants were collected at 24, 48 or 72 hrs following activation and assayed for TNF-α by ELISA (+/-SD).
as §1

[4] = tested on: hematopoietic reconstitution following 5-FU; assay: 5-fluorouracil (5-FU) induced bone marrow suppression in mice; type: in vivo, Balb/C mice
Description: Groups of 4 mice were phlebotomized at each time point. The values on the graph represent the means ±1 SD.
Groups of 4 mice were phlebotomized at each time point. The values on the group represent the means ±1 SD.
Groups of 4 mice were sacrificed and had one femur harvested at each time point. The values on the graph represent the means ±1 SD of the mean number of colonies per each individual tested in triplicate cultures.
Female Balb/C mice (VAF, Charles River Laboratories, 6-8 wks of age approximately 17.3-18.5 g) were treated with 5-FU at a dose of 200 mg/kg intraperitoneally (i.p.) in experiment 1 or 190 μg/kg in experiment 2. […] Mice (4 per group) were sacrificed starting 2 days after 5-FU by cardiac puncture under halothane anesthesia followed by cervical dislocation and had total white blood cell counts and differential counts performed. Platelet counts were performed using phase-contrast microscopy in duplicate. Femurs were harvested and the number of granulocyte-macrophage colony forming cells (CFU-GM) per femur were measured using a standard assay (Terry Fox Laboratories, Vancouver, British Columbia) using pokeweed mitogen spleen conditioned medium as the growth factor. Each femur was plated separately in triplicate and the mean and means for each experimental point was calculated. Standard deviations used for staffstidal analysis were deviations of the mean number of colonies measured for each femur.
Experiment 2 was similar to experiment 1 with the following exceptions: (1) the dose of 5-FU was decreased to 185 mg/kg; (2) daily blood draws were performed between days 10 and 15; and (3) platelet counts were performed.

IL-6 = assay: mouse plasma IL-6 ELISA after endotoxin; type: in vivo, mice
Method: FIG. 8 illustrates data from mouse plasma IL-6 ELISA measurements. Data are compiled from the average of duplicate ELISA measurements from a single experiment with each point representing pooled plasma from three mice.
For ELISA measurements of cytokine levels in plasma, blood was collected by retro-orbital or cardiac puncture of anesthetized mice, immediately centrifuged and the EDTA plasma stored at -70° C. Particulate free plasma was thawed on ice and cytokine levels determined utilizing commercial ELISA assays with normal mouse plasma used to generate standard curves. Murine tumor necrosis factor-α and interleukin-1α kits were purchased from Genzyme (Cambridge, Mass.) and Endogen (Boston, Mass.), respectively. Each data point was an average of two ELISA measurements made from EDTA serum pooled from three mice. The data summarized in Table 3 were compiled from two independent experiments; data from Table 4 and 5 were from single experiments of three mice per data point.
In particular, peak levels observed at 6, 12 and 18 hours post endotoxin were decreased 1.2, 4.3 and 3.2-fold, respectively. Finally, IL-6 measurements were made in a similar manner (Table 6, FIG. 8).

For `C[C@@H](O)CCCCn1c(=O)c2c(ncn2C)n(C)c1=O` [CT1501R, (R)-1-(5-hydroxyhexyl)-3,7-dimethylxanthine], the inhibition at 250 µM [1] was roughly 50%, the “activity compared with PTX, smooth muscle cell proliferation” value (smooth muscle cells) was “more active than PTX” and the “inhibition of smooth muscle cell proliferation” value (smooth muscle cells; drug added two hours prior to activation) was “inhibited smooth muscle cell proliferation at the higher doses tested”. The “inhibition of murine B-cell proliferation” value [2] was “inhibited B-cell proliferation”, the inhibition at 250 µM [3] was 50 to 70% and the “increase in number of CFU-GM/femur during hematopoietic recovery vs control” value ([4]; 5-FU treated mice) was “approximately two-fold increase”. For the same compound, the “CFU-GM/femur vs vehicle control and day 0” value ([4]; experiment 1, day 13 (p=0.024 vs vehicle, p=0.05 vs day 0)) was “significantly more CFU-GM/femur on day 13”, the “ANC (absolute neutrophil count), mean ±SD” value ([4]; experiment 1, day 13 after 5-FU (control 180±10/mm^3, P=0.05)) was 440±17 /mm^3 and the “WBC of 5-FU treated mice vs vehicle control” value ([4]; experiment 1, days 6 and 10 (p=0.019 and 0.036)) was “significantly lower in vehicle treated controls than in CT1501R treated mice”. For the same compound, the “WBC vs vehicle control” value ([4]; experiment 2) was “significantly higher WBC's”, the neutrophil recovery ([4]; experiment 2) was “Neutrophil recovery was accelerated” and the “number of cells per femur during hematopoietic recovery vs control” value ([4]; experiment 2) was “number of cells per femur was increased”. For the same compound, the “platelet count nadir and rate of recovery vs vehicle control” value ([4]; experiment 2) was “platelet count nadir and rate of recovery were also increased”, the “WBC and ANC, mice without 5-FU” value ([4]; i.p. bid, no 5-FU) was “remained within 1 SD of control values” and the “adverse effects, mice without 5-FU” value ([4]; i.p. bid, no 5-FU) was “no apparent adverse effects”. The “rise in ANC and CFU-GM/femur associated with vehicle injections, mice without 5-FU” value ([4]; no 5-FU, twice daily i.p. injections) was “prevented both the rise in ANC and rise in CFU-GM/femur”, the “decrease of peak plasma IL-6 vs endotoxin only” value (“decrease” for short) (IL-6; 3 hours post endotoxin) was 1.7 fold and the “decrease” value (IL-6; 6 hours post endotoxin) was 2.0 fold. The “decrease” value (IL-6; 12 hours post endotoxin) was 4.1 fold.
